# Values of other authors, collected in patent publication US20260207481A1, “INTRANASAL […] OF C[…] TREAT CENTRAL NERVOUS SYSTEM DISORDERS” (Nose to Brain Therapeutics LLC, priority 2019, published 2026).
# Legend:
# [1] = oral mucosal sprays compared to IV administration (FIG. 2)
# CB2 = CB2 (Homo sapiens, UniProt P34972)
# Chain of CB2 (P34972 whole entry): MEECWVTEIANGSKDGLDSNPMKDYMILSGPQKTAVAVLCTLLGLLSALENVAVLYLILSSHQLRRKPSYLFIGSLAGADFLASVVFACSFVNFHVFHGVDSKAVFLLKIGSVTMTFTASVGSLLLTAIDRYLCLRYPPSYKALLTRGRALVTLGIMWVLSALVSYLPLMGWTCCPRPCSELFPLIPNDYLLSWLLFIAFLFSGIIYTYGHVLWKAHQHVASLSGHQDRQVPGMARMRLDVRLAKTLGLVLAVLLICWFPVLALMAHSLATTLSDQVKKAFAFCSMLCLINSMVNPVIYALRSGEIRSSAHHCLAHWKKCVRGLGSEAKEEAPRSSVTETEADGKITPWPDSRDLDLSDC
smiles,measurement,setting,value
"C=C(C)[C@@H]1CCC(C)=C[C@H]1c1c(O)cc(CCCCC)cc1O [CBD, Cannabidiol]",Cmax,[1],poor
same,binding affinity to CB2,CB2,minimal
